Laboratory results: the supplement of paper PMC10307832

Tests used:
Assay in all cases: relative viability (nuclei count vs DMSO), 5 days (fraction); higher = more cells survive
VX-11e + Bortezomib = compound: CC1=CN=C(N=C1C2=CNC(=C2)C(=O)N[C@H](CO)C3=CC(=CC=C3)Cl)NC4=C(C=C(C=C4)F)Cl [VX-11e] + CC(C)C[C@H](NC(=O)[C@H](Cc1ccccc1)NC(=O)c1cnccn1)B(O)O [Bortezomib] (partner 0.002 µM)
Outline: (§1)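 Lung cancer cell lines in 1536-well plates got either a single drug or a fixed anchor-drug dose together with five library-drug doses (not always all listed) in √10 steps, by pin tool, on the day after seeding. Nuclei were counted after 5 days, and relative viability is the treated-to-vehicle ratio of nuclei counts. Values are medians of duplicate plates.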

VX-11e + Lapatinib = compound: CC1=CN=C(N=C1C2=CNC(=C2)C(=O)N[C@H](CO)C3=CC(=CC=C3)Cl)NC4=C(C=C(C=C4)F)Cl [VX-11e] + CS(=O)(=O)CCNCc1ccc(-c2ccc3ncnc(Nc4ccc(OCc5cccc(F)c5)c(Cl)c4)c3c2)o1 [Lapatinib] (partner 2 µM)
Outline: as §1

VX-11e + AZD7762 = compound: CC1=CN=C(N=C1C2=CNC(=C2)C(=O)N[C@H](CO)C3=CC(=CC=C3)Cl)NC4=C(C=C(C=C4)F)Cl [VX-11e] + NC(=O)Nc1cc(-c2cccc(F)c2)sc1C(=O)N[C@H]1CCCNC1 [AZD7762] (partner 0.2 µM)
Outline: as §1

VX-11e + Decitabine = compound: CC1=CN=C(N=C1C2=CNC(=C2)C(=O)N[C@H](CO)C3=CC(=CC=C3)Cl)NC4=C(C=C(C=C4)F)Cl [VX-11e] + Nc1ncn([C@H]2C[C@H](O)[C@@H](CO)O2)c(=O)n1 [Decitabine] (partner 2 µM)
Outline: as §1

Cell Line	relative viability (VX-11e + Bortezomib; first compound 0.04 µM)	relative viability (VX-11e + Bortezomib; first compound 0.1265 µM)	relative viability (VX-11e + Bortezomib; first compound 0.4 µM)	relative viability (VX-11e + Bortezomib; first compound 1.265 µM)	relative viability (VX-11e + Bortezomib; first compound 4 µM)	relative viability (VX-11e + Lapatinib; first compound 0.04 µM)	relative viability (VX-11e + Lapatinib; first compound 0.1265 µM)	relative viability (VX-11e + Lapatinib; first compound 0.4 µM)	relative viability (VX-11e + Lapatinib; first compound 1.265 µM)	relative viability (VX-11e + Lapatinib; first compound 4 µM)	relative viability (VX-11e + AZD7762; first compound 0.04 µM)	relative viability (VX-11e + AZD7762; first compound 0.1265 µM)	relative viability (VX-11e + AZD7762; first compound 0.4 µM)	relative viability (VX-11e + AZD7762; first compound 1.265 µM)	relative viability (VX-11e + AZD7762; first compound 4 µM)	relative viability (VX-11e + Decitabine; first compound 0.04 µM)	relative viability (VX-11e + Decitabine; first compound 0.1265 µM)	relative viability (VX-11e + Decitabine; first compound 0.4 µM)	relative viability (VX-11e + Decitabine; first compound 1.265 µM)	relative viability (VX-11e + Decitabine; first compound 4 µM)
PC-14	0.967	0.798	0.818	0.869	0.527	0.275	0.327	0.251	0.35	0.203	0.341	0.339	0.274	0.278	0.256	0.243	0.19	0.202	0.247	0.235
RERF-LC-KJ	1	1.04	–	1.03	0.894	0.833	0.776	0.879	0.848	0.649	0.572	0.876	0.498	0.903	0.839	0.707	0.703	0.592	0.807	0.62
